Legend:
[1] = system: islets isolated from WT, P20 mice; experiment: qRT-PCR of mRNA in cultured neonatal mouse islets exposed to FK506; format: cell-based
Method: (§1) Quantitative Real-time RT-PCR. Mouse islets were isolated by standard collagenase pancreatic perfusion as previously described (Heit et al. (2006a), supra). Total islet mRNA was then isolated using the RNeasy Microkit (QIAGEN) according to the manufacturer's instructions and RNA amount and purity were assessed by Nanodrop spectrophotometry. Any remaining contaminant DNA was removed by treating samples with 1 unit of RNAse-free DNAse (Fermentas). Next, cDNA was prepared from 750 ng of total islet RNA using the RETROscript kit (Ambion) and analyzed by quantitative real-time PCR (QPCR) using TaqMan Universal PCR Master Mix (ABI) and the ABI Prism 7500 detection system. For culture studies, islets harvested from mice of the indicated genotype were placed in standard media (RPMI 1640 with 4.5 mM glucose containing 10% FBS and 1% pen/strep) at 37° C. and 5% CO2. For some experiments islets were maintained in media containing vehicle (DMSO), glucokinase activator (GKA) R0-28-1675 (10 μM; Axon Ligands) and/or FK506 (10 μM; LC Laboratories) for 72 hours, with media changes every 24 hours. Additionally, β-cells from MIP-EGFP islets were isolated using fluorescence-activated cell sorting as previously described (Sugiyama, T., et al. (2007). Conserved markers of fetal pancreatic epithelium permit prospective isolation of islet progenitor cells by FACS. Proc. Natl. Acad. Sci. U.S.A 104, 175-180) and processed as above for analysis by QPCR. Each quantitative analysis was performed in triplicate and islets from 3 to 6 mice of each genotype were independently tested. Data are normalized to β-actin and results are expressed as the mean±S.E.M.

human islets = experiment: qRT-PCR of mRNA in cultured human islets exposed to FK506; format: cell-based; details: 72 hr
Method: (§2) Quantitative Real-time RT-PCR. Mouse islets were isolated by standard collagenase pancreatic perfusion as previously described (Heit et al. (2006a), supra). Total islet mRNA was then isolated using the RNeasy Microkit (QIAGEN) according to the manufacturer's instructions and RNA amount and purity were assessed by Nanodrop spectrophotometry. Any remaining contaminant DNA was removed by treating samples with 1 unit of RNAse-free DNAse (Fermentas). Next, cDNA was prepared from 750 ng of total islet RNA using the RETROscript kit (Ambion) and analyzed by quantitative real-time PCR (QPCR) using TaqMan Universal PCR Master Mix (ABI) and the ABI Prism 7500 detection system. Human islet studies. Human islet samples were obtained from healthy, non-diabetic organ donors deceased due to acute traumatic or anoxic death and offered by NDR1 (National Diseases Resource Interchange). Islets were isolated by Bottino, R. at the University of Pittsburg, or by Bryant, S, and Thompson A. at the University of Alabama, Birmingham. […] After isolation, islets were shipped directly to our laboratory and were transferred to fresh islet culture medium (RPMI 1640 with 4.5 mM glucose containing 10% FBS and 1% pen/strep). As with mouse islets, islet samples were split and treated with either vehicle (DMSO) or FK506 ([…], LC laboratories) for 72 hours, with medium changes every 24 hours. Islets were then handpicked with dithizone staining and aliquots of 1000 IEQ were spun down and snap frozen for mRNA isolation or crosslinked as described above for ChIP studies. BrdU analysis was performed on the donor batch by treating islets with 50 uM BrdU and chasing for 24 hrs. Afterwards, islets were placed in 2% agarose and processed within paraffin blocks as described above. Islets were immunostained for insulin and BrdU and β-cell proliferation rate was determined by quantifying the percentage of insulin+ and BrdU^+ cells. A minimum of 50 islets and over 2000 β-cells were scored per condition.

neonatal human islets = experiment: BrdU incorporation, β-cell proliferation in human islets; format: cell-based; details: islets of donor, FK506 vs vehicle (FIG. 6G-H)
Method: as §2, with “Human” for “Quantitative Real-time RT-PCR. Mouse islets were isolated by standard collagenase pancreatic perfusion as previously described (Heit et al. (2006a), supra). Total islet mRNA was then isolated using the RNeasy Microkit (QIAGEN) according to the manufacturer's instructions and RNA amount and purity were assessed by Nanodrop spectrophotometry. Any remaining contaminant DNA was removed by treating samples with 1 unit of RNAse-free DNAse (Fermentas). Next, cDNA was prepared from 750 ng of total islet RNA using the RETROscript kit (Ambion) and analyzed by quantitative real-time PCR (QPCR) using TaqMan Universal PCR Master Mix (ABI) and the ABI Prism 7500 detection system. Human”

[2] = cited from earlier work
NFATc1 [3] = experiment: Chromatin immunoprecipitation (ChIP) of NFATc1 in mouse islets; format: cell-based
Method: (§3) Islets from P20 C57/BL6 mice were isolated (as above) and fixed with 1% formaldehyde for 10 minutes at room temperature. Cross-linking was quenched by the addition of 0.125 M glycine and islets were washed in DPBS. ChIPs were then performed using the EZ-Magna ChIP™ G Chromatin Immunoprecipitation Kit (Millipore), following the manufacturer's protocol. Briefly, following cell and nuclear lysis, islets were sonicated to shear chromatin using a Bioruptor Sonicator (Diagenode) at maximum power; set for 15 seconds ON followed by 45 seconds OFF for a total time of 10 minutes. Precleared chromatin from 200-300 islets was used for each ChIP sample with incubation of 1 to 10 ug of the appropriate antibodies overnight at 4° C. Before IP, 1/10 of the extract was saved for use as the input. Antibodies used for IP were mouse monoclonal anti-RNA Polymerase (1 ug, Millipore, 05-623B), rabbit anti-IgG (1 ug, Santa Cruz, sc-2027), and rabbit anti-NFATc1 (5 ug, Imgenex, #IMG-5101A). Resulting chromatin was then amplified using the GenomePlex WGA4 Whole Genome Amplification Kit (Sigma) and quantified using nanodrop. Equal amounts of chromatin DNA were then analyzed by quantitative PCR in the ABI Prism 7500 detection system (Applied Biosystems) using Power SYBR Green PCR Master Mix (Applied Biosystems). […]

NFATc1 [4] = experiment: ChIP of NFATc1 on isolated human islets; format: cell-based; parameters: NFATc1 association at CCNA2, CCND2 and FOXM1 promoter sites: dose or concentration left out as unconfirmed
Method: as §3, with “Antibodies used for IP were mouse monoclonal anti-RNA Polymerase (1 ug, Millipore, 05-623B), rabbit anti-IgG (1 ug, Santa Cruz, sc-2027), and rabbit anti-NFATc1 (5 ug, Imgenex, #IMG-5101A).” left out
Human islet studies. […] Islets were immunostained for insulin and BrdU and β-cell proliferation rate was determined by quantifying the percentage of insulin+ and BrdU^+ cells. A minimum of 50 islets and over 2000 β-cells were scored per condition.

cultured P10 islets = experiment: qRT-PCR of mRNA in cultured P10 mouse islets exposed to glucokinase activator with or without FK506; format: cell-based
Method: as §1

cultured human islets = cultured human islets exposed to FK506; cited from earlier work
[5] = WT P20 mouse islets, FK506 10 μM, 72 hr, vs vehicle (FIG. 3F)
[6] = FK506 10 μM, vs vehicle (FIG. 4A)

Which “levels of Hnf4a mRNA” value [1, 5] does the source give for C=CC[C@@H]1/C=C(\C)C[C@H](C)C[C@H](OC)[C@H]2O[C@@](O)(C(=O)C(=O)N3CCCC[C@H]3C(=O)O[C@H](/C(C)=C/[C@@H]3CC[C@@H](O)[C@H](OC)C3)[C@H](C)[C@@H](O)CC1=O)[C@H](C)C[C@@H]2OC [FK506, tacrolimus] here?
Its value is “remained unchanged”.

And the “levels of Ins1, Ins2, ChgA, ChgB, IAPP and IA2 mRNA” value [1, 5]?
The value was “significantly reduced”.

What about the “levels of CcnA2, CcnD2 and FoxM1 mRNAs” value ([1]; neonatal WT mouse islets, FK506, 72 hr, vs vehicle (FIG. 5E)) of the same compound?
Its value is “significantly decreased”.

What about the “CCNA2, CCND2 and FOXM1 mRNA levels” value (human islets; vs vehicle (FIG. 6F)) of the same compound?
Its value is “significantly decreased”.

What about the “islet levels of mRNA encoding HNF4a” value (human islets; [6]) of the same compound?
The value was “unaffected”.

And the “mRNAs encoding INS, CHGA, CHGB, IAPP, and IA2” value (human islets; [6])?
The value was “reduction”.

What about the “reduction of β-cell BrdU incorporation” value (neonatal human islets) of the same compound?
The value was ~3 fold.

What about the “incidence of diabetes mellitus” value ([2]; patients administered calcineurin inhibitors) of the same compound?
Its value is “high incidence”.

And the “patients developing diabetes mellitus” value ([2]; patients requiring immunosuppression with calcineurin inhibitors)?
Its value is 10-30%.

And the “NFATc1 binding at ChgA, ChgB and IA2 promoters” value (NFATc1 [3]; WT P20 mouse islets, FK506 24 hr (FIG. 3K))?
Its value is “reduced to levels comparable to IgG controls”.

What about the “NFATc1 binding at CcnD2, FoxM1 and CcnA2 promoter sites” value (NFATc1 [3]; WT neonatal mouse islets, FK506 24 hr (FIG. 5J)) of the same compound?
The value was “consistently reduced NFATc1 binding to background levels”.

What about the “NFATc1 binding at CHGA, CHGB, IAPP, and IA2 sites” value (NFATc1 [4]; human islets, FK506 10 μM, 24 hr (FIG. 4B)) of the same compound?
Its value is “consistently reduced”.

What about the “NFATc1 association at CCNA2, CCND2 and FOXM1 promoter sites” value (NFATc1 [4]; neonatal human islets) of the same compound?
Its value is “FK506-sensitive”.

And the “GKA induction of CcnA2, CcnD2 and FoxM1 mRNAs” value (cultured P10 islets; P10 islets, simultaneous exposure to FK506, 10 μM each, 72 hr (FIG. 7D))?
The value was “attenuated or blocked”.

What about the “GKA elevation of Insulin 2 (Ins2) levels” value (cultured P10 islets; WT P10 islets, GKA+FK506, 10 μM each, 72 hr (FIG. 7B)) of the same compound?
Its value is “blunted”.

What about the “GKA induction of NFATc1 mRNA” value (cultured P10 islets; WT P10 islets, simultaneous exposure to FK506 and GKA, 10 μM each, 72 hr (FIG. 7A)) of the same compound?
Its value is “blocked”.

What about the “GKA increase of ChgA, ChgB, IAPP, and IA2 mRNAs” value (cultured P10 islets; neonatal P10 islets, GKA+FK506, 10 μM each, 72 hr (FIG. 7C)) of the same compound?
The value was “eliminated or significantly reduced”.

What about the DCG numbers (cultured human islets) of the same compound?
The DCG numbers was “reduced”.

And the insulin secretion (cultured human islets)?
Its insulin secretion is “impaired”.
